Experimental data: article PMC8036666, “Biological and Physico-Chemical Characteristics of Arginine-Rich Peptide Gemini Surfactants with Lysine and Cystine Spacers” (International Journal of Molecular Sciences, 2021)
Values after ≈ are worked out from the molar mass of the structure shown. Values joined by “and” are separate entries in the source; they are usually repeats but may differ in a detail not shown here. Identical values can stand only once. Like-named read-outs stand apart in the source and are kept apart here. Where a SMILES comes first, the peptide text is derived from it. Bridges are numbered along the chain shown (N, C = ends). Roman numbers before positions name the chains, in order. The star is where a group is joined. Myristoyl = CCCCCCCCCCCCCC(=O)*; Lauroyl = CCCCCCCCCCCC(=O)*; Decanoyl = CCCCCCCCCC(=O)*; Octanoyl = CCCCCCCC(=O)*

Key:
[1] = tested on: Klebsiella aerogenes ATCC 13048
Description: (§1) The Acinetobacter baumannii ATCC BAA-1605, Enterococcus faecium ATCC 700221, Escherichia coli ML-35 ATCC 43827, Klebsiella aerogenes ATCC 13048, Klebsiella pneumoniae ATCC 700603, Pseudomonas aeruginosa ATCC 9027, Staphylococcus aureus ATCC 25923, Staphylococcus aureus ATCC 33591, Candida albicans ATCC 10231, Candida glabrata ATCC 15126, strains were acquired from the American Type Culture Collection (ATCC). All the strains were stored at −80 °C in Roti-Store cryo vials and before the tests were transferred into fresh Mueller–Hinton broth (MHB, Biocorp, Warsaw, Poland) for bacteria or RPMI-1640 (Sigma-Aldrich, Steinheim, Germany) for fungi and incubated for 24 h at 37 °C. Then, the cultures were seeded on the Mueller–Hinton agar (BioMaxima, Lublin, Poland) or Sabouraud dextrose agar (SDA, BioMaxima, Lublin, Poland) plates, respectively, and incubated as just mentioned. These agar cultures were used for further microbiological assays. Cell densities for all assays were adjusted spectrophotometrically (Multiskan GO Microplate Spectrophotometer, Thermo Fisher Scientific, Vantaa, Finland) at 600 and 530 nm for bacteria and fungi, respectively.
(§2) The MICs were determined by the broth microdilution method according to the Clinical and Laboratory Standard Institute guidelines. […] The experiments were conducted on 96-well microtiter polystyrene plates (Kartell, Noviglio, Italy). The growth was assessed visually after incubation, and the MIC was assumed as the lowest peptide concentration at which a noticeable growth of microorganisms was inhibited. All experiments were conducted in triplicate.

[2] = tested on: Pseudomonas aeruginosa ATCC 9027
Description: as §1, §2

[3] = tested on: Staphylococcus aureus ATCC 25923
Description: as §1, §2

[4] = tested on: Acinetobacter baumannii ATCC BAA 1605
Description: as §1, §2

[5] = tested on: Enterococcus faecium ATCC 700221
Description: as §1, §2

[6] = tested on: Klebsiella pneumoniae ATCC 700603
Description: as §1, §2

C. albicans ATCC 10231 = tested on: C. albicans ATCC 10231
Description: as §1
(§3) The MICs were determined by the broth microdilution method according to the Clinical and Laboratory Standard Institute guidelines. For this purpose, initial inoculums of bacteria (5 × 10^5 CFU/mL) in MHB and yeasts (2 × 10^3 CFU/mL) in RPMI-1640 with 2% D-glucose were exposed to the ranging concentration of lipopeptides (0.5–256 μg/mL) and incubated at 37 °C for 18 h and 24 h, respectively. The experiments were conducted on 96-well microtiter polystyrene plates (Kartell, Noviglio, Italy). The growth was assessed visually after incubation, and the MIC was assumed as the lowest peptide concentration at which a noticeable growth of microorganisms was inhibited. All experiments were conducted in triplicate.

C. glabrata ATCC 15126 = tested on: C. glabrata ATCC 15126
Description: as §1, §3

[7] = Critical aggregation concentration by surface tension (Du Noüy ring, K100 tensiometer); type: physicochemical; conditions: unbuffered aqueous solution, 298 K
Description: (§4) The identity of the purified peptides was confirmed with electrospray ionization mass spectrometry (ESI-MS) in positive ion mode. Results of MS analyses and net charge are attached in Supplementary Materials (Table S1). Peptides’ hydrophobicity was evaluated by analytical reversed-phase high-performance liquid chromatography (RP-HPLC). The critical aggregation concentrations (CACs) of the lipopeptides were determined in unbuffered aqueous solution at 298 K by measuring the surface tension as a function of lipopeptide concentration. The measurements were carried out by the Du Noüy ring method on a K100 tensiometer. The surface tension data were plotted against the logarithm of lipopeptide concentration. CAC was found as the intersection of two lines being linear regression of data below and above CAC.
The critical aggregation concentration (CAC) values were determined fully automatically using a K100 tensiometer (KRUSS, Hamburg, Germany) equipped with two micro dosimeters by measuring the surface tension vs. lipopeptide concentration. The measurements were performed in unbuffered aqueous solution at 298 K using the Du Noüy ring method. The accuracy of the surface tension measurements was 0.1 mN/m. The critical aggregation concentration (CAC) was defined as the intersection of two lines fitted to the experimental data collected before and after the inflection point.

[8] = Lipopeptide hydrophobicity by RP-HPLC (adjusted retention time); type: physicochemical; conditions: for Adjusted Retention Time: RP-HPLC, 20–65% acetonitrile over 30 min, indicator of hydrophobicity; for Difference in retention time calculated as tR’C—tR’B: between corresponding surfactants of series C and B
Description: as §4
Lipopeptide hydrophobicity was determined as described previously. To do this, a Waters Alliance e2695 system with a Waters 2998 PDA Detector (software-Empower 3, Waters, Milford, MA, USA) was used. All analyses were carried out on a Waters X-Bridge Shield RP-18 column (3.0 × 100 mm, 3.5 μm particle size, 130 Å pore size). The Shield Technology column with embedded polar groups was used to minimize interactions of unreacted silanol groups with basic lipopeptides. The peptides were dissolved in water (0.1% TFA, v/v) up to a concentration of 1 mg/mL. UV detection at 214 nm was used, and samples (10 μL) were eluted with a linear 20–65% acetonitrile gradient in deionized water over 30 min at 25.0 ± 0.1 °C. The mobile phase flow rate was 0.5 mL/min. Both eluents contained 0.1% (v/v) of TFA. Each peptide sample was analyzed in triplicate. The maximum standard deviation and coefficient of variation were 0.044 and 0.85%, respectively.

MIC Klebsiella aerogenes ATCC 13048 ([1]; ATCC 13048, 24 h) [µg/mL] | MIC Pseudomonas aeruginosa ATCC 9027 ([2]; ATCC 9027, 24 h) [µg/mL] | MIC Acinetobacter baumannii ATCC BAA 1605 ([4]; ATCC BAA 1605, 24 h) [µg/mL] | MIC Enterococcus faecium ATCC 700221 ([5]; ATCC 700221, 24 h) [µg/mL] | MIC Klebsiella pneumoniae ATCC 700603 ([6]; ATCC 700603, 24 h) | MIC C. albicans ATCC 10231 (C. albicans ATCC 10231; ATCC 10231, 24 h) [µg/mL] | MIC C. glabrata ATCC 15126 (C. glabrata ATCC 15126; ATCC 15126, 24 h) [µg/mL] | SMILES | MIC Staphylococcus aureus ATCC 25923 ([3]; ATCC 25923, 24 h) [µg/mL] | CAC [7] | Surface Tension at CAC [7] [mN/m] | Adjusted Retention Time [8] [min] | Difference in retention time calculated as tR’C—tR’B [8] [min] | MIC Staphylococcus aureus ATCC 25923 ([3]; planktonic culture) [µg/mL] | MIC Klebsiella aerogenes ATCC 13048 ([1]; planktonic culture) [µg/mL] | MIC Pseudomonas aeruginosa ATCC 9027 ([2]; planktonic culture) [µg/mL] | MIC Acinetobacter baumannii ATCC BAA 1605 ([4]; planktonic culture) [µg/mL] | MIC Enterococcus faecium ATCC 700221 ([5]; planktonic culture) [µg/mL] | MIC Klebsiella pneumoniae ATCC 700603 ([6]; planktonic culture) [µg/mL] | MIC C. albicans ATCC 10231 (C. albicans ATCC 10231; planktonic culture) [µg/mL] | MIC C. glabrata ATCC 15126 (C. glabrata ATCC 15126; planktonic culture) [µg/mL]
32 (≈ 26.1 µM) | 8 (≈ 6.52 µM) | 64 (≈ 52.1 µM) | 2 (≈ 1.63 µM) | >256 (−/−) µg/mL | 1 (≈ 0.815 µM) | 2 (≈ 1.63 µM) | CCCCCCCCCCCC(=O)N[C@@H](CCCNC(=N)N)C(=O)N[C@@H](CCCNC(=N)N)C(=O)N[C@@H](CSSC[C@H](NC(=O)[C@H](CCCNC(=N)N)NC(=O)[C@H](CCCNC(=N)N)NC(=O)CCCCCCCCCCC)C(N)=O)C(N)=O [Compound C3] (I: Lauroyl-Arg-Arg-Cys-NH2 / II: Lauroyl-Arg-Arg-Cys-NH2; disulfide I:3-II:3) | 4 (≈ 3.26 µM) | 0.25 mM and 305.4 μg/mL | 43 | 19.24 | 0.15 |  |  |  |  |  |  |  | 
128 (≈ 99.7 µM) | 64 (≈ 49.9 µM) | 32 (≈ 24.9 µM) | 8 (≈ 6.23 µM) | >256 (−/−) µg/mL | 2 (≈ 1.56 µM) | 1 (≈ 0.779 µM) | CCCCCCCCCCCCCC(=O)N[C@@H](CCCNC(=N)N)C(=O)N[C@@H](CCCNC(=N)N)C(=O)N[C@@H](CSSC[C@H](NC(=O)[C@H](CCCNC(=N)N)NC(=O)[C@H](CCCNC(=N)N)NC(=O)CCCCCCCCCCCCC)C(N)=O)C(N)=O [Compound C4] (I: Myristoyl-Arg-Arg-Cys-NH2 / II: Myristoyl-Arg-Arg-Cys-NH2; disulfide I:3-II:3) |  | 0.06 mM and 71.1 μg/mL | 47 | 25.30 | -0.03 | 64 (≈ 49.9 µM) |  |  |  |  |  |  | 
 |  |  |  |  |  |  | CCCCCCCC(=O)N[C@@H](Cc1ccccc1)C(=O)N[C@@H](CCCNC(=N)N)C(=O)N[C@@H](CCCNC(=N)N)C(=O)N[C@@H](CSSC[C@H](NC(=O)[C@H](CCCNC(=N)N)NC(=O)[C@H](CCCNC(=N)N)NC(=O)[C@H](Cc1ccccc1)NC(=O)CCCCCCC)C(N)=O)C(N)=O [Compound C5] (I: Octanoyl-FRRC-NH2 / II: Octanoyl-FRRC-NH2; disulfide I:4-II:4) |  | 2.58 mM and 3632.7 μg/mL | 37 | 15.42 | 0.23 | 2 (≈ 1.42 µM) | 128 (≈ 90.8 µM) | 8 (≈ 5.67 µM) | 32 (≈ 22.7 µM) | 2 (≈ 1.42 µM) | 32 (≈ 22.7 µM) | 8 (≈ 5.67 µM) | 8 (≈ 5.67 µM)

SMILES | MIC Klebsiella aerogenes ATCC 13048 ([1]; ATCC 13048, 24 h) [µg/mL] | MIC Pseudomonas aeruginosa ATCC 9027 ([2]; ATCC 9027, 24 h) [µg/mL] | MIC Acinetobacter baumannii ATCC BAA 1605 ([4]; ATCC BAA 1605, 24 h) [µg/mL] | MIC Enterococcus faecium ATCC 700221 ([5]; ATCC 700221, 24 h) [µg/mL] | MIC Klebsiella pneumoniae ATCC 700603 ([6]; ATCC 700603, 24 h) | MIC C. albicans ATCC 10231 (C. albicans ATCC 10231; ATCC 10231, 24 h) [µg/mL] | MIC C. glabrata ATCC 15126 (C. glabrata ATCC 15126; ATCC 15126, 24 h) [µg/mL] | MIC Staphylococcus aureus ATCC 25923 ([3]; ATCC 25923, 24 h) [µg/mL] | CAC [7] | Surface Tension at CAC [7] [mN/m] | Adjusted Retention Time [8] [min] | Difference in retention time calculated as tR’C—tR’B [8] [min] | MIC Staphylococcus aureus ATCC 25923 ([3]; planktonic culture) [µg/mL] | MIC Klebsiella aerogenes ATCC 13048 ([1]; planktonic culture) [µg/mL] | MIC Pseudomonas aeruginosa ATCC 9027 ([2]; planktonic culture) [µg/mL] | MIC Acinetobacter baumannii ATCC BAA 1605 ([4]; planktonic culture) [µg/mL] | MIC Enterococcus faecium ATCC 700221 ([5]; planktonic culture) [µg/mL] | MIC Klebsiella pneumoniae ATCC 700603 ([6]; planktonic culture) [µg/mL] | MIC C. albicans ATCC 10231 (C. albicans ATCC 10231; planktonic culture) [µg/mL] | MIC C. glabrata ATCC 15126 (C. glabrata ATCC 15126; planktonic culture) [µg/mL]
CCCCCCCCCC(=O)N[C@@H](CCCNC(=N)N)C(=O)N[C@@H](CCCNC(=N)N)C(=O)N[C@@H](CSSC[C@H](NC(=O)[C@H](CCCNC(=N)N)NC(=O)[C@H](CCCNC(=N)N)NC(=O)CCCCCCCCC)C(N)=O)C(N)=O [Compound C2] (I: Decanoyl-Arg-Arg-Cys-NH2 / II: Decanoyl-Arg-Arg-Cys-NH2; disulfide I:3-II:3) | 128 (≈ 109 µM) | 8 (≈ 6.83 µM) | 16 (≈ 13.7 µM) | 2 (≈ 1.71 µM) | >256 (−/−) µg/mL | 4 (≈ 3.41 µM) | 8 (≈ 6.83 µM) | 2 (≈ 1.71 µM) | 3.30 mM and 3832.7 μg/mL | 43 | 13.94 | 0.21 |  |  |  |  |  |  |  | 
